In brackets after ≈: the same amount, converted by molar mass. Read-outs that look alike come from different tables or passages of the source. Where a SMILES comes first, the peptide text is derived from it. Bridges are numbered along the chain shown (N, C = ends). [ ]: non-standard residue; d: D form. Pen = CC(C)(S)[C@H](N)C(=O)O; dDab = NCC[C@@H](N)C(=O)O; Dab = NCC[C@H](N)C(=O)O
How the values were obtained:
[1] = test system: Klebsiella pneumoniae ATCC 43816 LptA I36S mutant; experiment: microbe, parasite or virus in culture; details: Klebsiella pneumoniae, ATCC43816, read-out: MIC Klebsiella pneumoniae ATCC 43816 LptA I36S (1x)
Method: (§1) MIC assays [Clinical and Laboratory Standards Institute (CLSI) methodology] and serial passage studies were performed as described by Luther et al. ([6]). […] Resistant mutants were isolated, and their MIC values were determined and sent to Microbes NG (Birmingham, United Kingdom) for whole-genome sequencing and bioinformatic analysis.

[2] = test system: Klebsiella pneumoniae ATCC 43816 LapB mutant; experiment: microbe, parasite or virus in culture; details: Klebsiella pneumoniae, ATCC43816, read-out: MIC Klebsiella pneumoniae ATCC 43816 LapB (1x)
Method: as §1

[3] = test system: Klebsiella pneumoniae NCTC 13443 LptA I36S mutant; experiment: microbe, parasite or virus in culture; details: Klebsiella pneumoniae, NCTC13443, read-out: MIC Klebsiella pneumoniae NCTC 13443 LptA I36S (2x)
Method: as §1

[4] = test system: K. pneumoniae ATCC 43816 LptA Q62L mutant; experiment: microbe, parasite or virus in culture; details: Klebsiella pneumoniae
Method: as §1

[5] = test system: Klebsiella pneumoniae ATCC 43816 LptA L116Q mutant; experiment: microbe, parasite or virus in culture; details: Klebsiella pneumoniae, ATCC43816, read-out: MIC Klebsiella pneumoniae ATCC 43816 LptA L116Q (1x)
Method: as §1

[6] = test system: E. coli ATCC 25922 (parent / WT); experiment: microbe, parasite or virus in culture; details: for MIC: Escherichia coli
Method: as §1

[7] = test system: Klebsiella pneumoniae ATCC 43816 LptA I36N mutant; experiment: microbe, parasite or virus in culture; details: Klebsiella pneumoniae, ATCC43816, read-out: MIC Klebsiella pneumoniae ATCC 43816 LptA I36N (1x)
Method: as §1

[8] = test system: Escherichia coli ATCC 25922 LptA E84D mutant; experiment: microbe, parasite or virus in culture; details: Escherichia coli, ATCC25922, read-out: MIC Escherichia coli ATCC 25922 LptA E84D (1x)
Method: as §1

[9] = test system: Klebsiella pneumoniae ATCC 43816 PglJ, PhnJ, ThiH mutant; experiment: microbe, parasite or virus in culture; details: Klebsiella pneumoniae, ATCC43816, read-out: MIC Klebsiella pneumoniae ATCC 43816 PglJ, PhnJ, ThiH (1x)
Method: as §1

[10] = test system: K. pneumoniae NCTC 13443 (NDM-1) LptA Q62L mutant; experiment: microbe, parasite or virus in culture; details: for MIC: Klebsiella pneumoniae
Method: as §1

[11] = test system: Klebsiella pneumoniae NCTC 13443 YejM mutant; experiment: microbe, parasite or virus in culture; details: Klebsiella pneumoniae, NCTC13443, read-out: MIC Klebsiella pneumoniae NCTC 13443 YejM (1x)
Method: as §1

[12] = test system: Escherichia coli ATCC 25922 KdsD mutant; experiment: microbe, parasite or virus in culture; details: Escherichia coli, ATCC25922, read-out: MIC Escherichia coli ATCC 25922 KdsD (2x)
Method: as §1

[13] = test system: E. coli ATCC 25922 LptA Q62L mutant; experiment: microbe, parasite or virus in culture; details: for MIC: Escherichia coli
Method: as §1

[14] = test system: Klebsiella pneumoniae NCTC 13443 LpxC, LpxD mutant; experiment: microbe, parasite or virus in culture; details: Klebsiella pneumoniae, NCTC13443, read-out: MIC Klebsiella pneumoniae NCTC 13443 LpxC, LpxD (1x)
Method: as §1

[15] = test system: K. pneumoniae NCTC 13443 (NDM-1) (parent / WT); experiment: microbe, parasite or virus in culture; details: for MIC: Klebsiella pneumoniae
Method: as §1

[16] = test system: K. pneumoniae ATCC 43816 (parent / WT); experiment: microbe, parasite or virus in culture; details: for MIC: Klebsiella pneumoniae
Method: as §1

human red blood cells = experiment: Haemolysis; format: cell-based; details: PBS-washed human red blood cells; 1 h at 200 mg/liter, 37°C; OD 540 nm; versus 100% lysis control 2.5% Triton X-100; biological replicates
Method: To test their hemolytic potential, compounds were incubated in the presence of phosphate-buffered saline (PBS)–washed human red blood cells. After 1-hour incubation at 200 mg/liter and 37°C, the samples were centrifuged (3220g), the supernatants were diluted in Dulbecco’s PBS, and optical density at 540 nm was determined. The hemolysis induced by the compound was calculated versus a 100% lysis control prepared with 2.5% Triton X-100 (table S4A).

in vitro = format: cell-based; details: human
Method: The cytotoxicity of compounds was determined by determining the number of viable cells using the Sigma Cell Counting Kit-8 (WST-8). HeLa cells were incubated at 37°C and 5% CO2 for 24 hours, after which the medium was replaced with fresh medium containing dilutions of compounds. […]

LptAm = target: T1, LptAm (Escherichia coli, UniProt P0ADV1); experiment: biochemical; format: binding, E. coli
T1 construct: His6-GB1 (N, cleaved yes); made in house; host or cells: E. coli BL21 (DE3)
Method: (§2) Protein stocks were purified and concentrated in buffer 1 [50 mM Na-Pi (pH 7) and 150 mM NaCl] and, if necessary, diluted to desired concentrations using buffer 2 [50 mM Na-Pi (pH 7), 150 mM NaCl, and 0.05% Tween 20]. Peptide stocks and fluorescently labeled peptide stocks were made in buffer 2. Every serial dilution consisted of 24 wells, the first well with the highest concentrate and the last well (well 24) with the lowest. First, 50 μl of buffer 2 was added to the wells 2 to 24 of each serial dilution. Then, 100 μl of concentrated unlabeled peptide/protein in their respective buffers was added to the first well. Fifty microliters were taken from the first well and added to the second well for a 1:1 serial dilution and continued for the 24 wells. […] Plates were covered with adhesive seals and left to incubate overnight at 4°C before FP measurements the next day. Anisotropy was measured using the Tecan Safire2 plate reader using a 10-nm bandwidth and setting the excitation and emission wavelengths to 635 and 670 nm, respectively. The G-factor (G) was also determined empirically as 1.094 for the instrument and included in all the anisotropy calculations.
(§3) For the indirect binding assays, r was calculated in the same manner as the direct binding assays. […] The control was subtracted from r to yield r′. Data were fit to a sigmoidal interpolation model on GraphPad Prism 9, and an IC50 was generated for each unlabeled peptide or protein measured.

LptAmQ62L = target: T2, LptAmQ62L (Escherichia coli, UniProt P0ADV1, Q62L); experiment: biochemical; format: binding, E. coli
T2 construct: His6-GB1 (N, cleaved yes); made in house; host or cells: E. coli BL21 (DE3)
Method: as §2, §3

[17] = test system: K. pneumoniae 968733 (CST-R); experiment: MIC assay (CLSI); format: cell-based, Klebsiella pneumoniae; details: Klebsiella pneumoniae, read-out: MIC K. pneumoniae 968733 (CST-R) Parent
Method: as §1

[18] = CLSI method, clone harboring LptA Q62L

T2 sequence (P0ADV1 28-159 Q62L): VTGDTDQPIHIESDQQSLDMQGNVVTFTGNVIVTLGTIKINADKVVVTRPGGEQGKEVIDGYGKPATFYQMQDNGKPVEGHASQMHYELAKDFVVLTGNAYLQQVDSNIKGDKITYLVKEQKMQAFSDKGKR
T1 sequence (P0ADV1 28-159): as the sequence (P0ADV1 28-159 Q62L) above, with L35Q counted along it

SMILES: CO[C@@H]1[C@@H](OC(N)=O)[C@@H](O)[C@H](Oc2ccc3c(O)c(NC(=O)c4ccc(O)c(CC=C(C)C)c4)c(=O)oc3c2C)OC1(C)C [Novobiocin]
- MIC [1]: > 64 µg/mL
- MIC [2]: 32 µg/mL (≈ 52.2 µM)
- MIC [3]: > 64 µg/mL
- MIC ([4]; ATCC43816, read-out: MIC Klebsiella pneumoniae ATCC 43816 LptA Q62L (4x)): > 64 µg/mL
- MIC [5]: > 64 µg/mL
- MIC ([6]; ATCC25922, read-out: MIC Escherichia coli ATCC 25922 WT): > 64 µg/mL
- MIC [7]: > 64 µg/mL
- MIC [8]: > 64 µg/mL
- MIC [9]: 32 µg/mL (≈ 52.2 µM)
- MIC ([10]; NCTC13443, read-out: MIC Klebsiella pneumoniae NCTC 13443 LptA Q62L (5x)): > 64 µg/mL
- MIC [11]: > 64 µg/mL
- MIC [12]: 64 µg/mL (≈ 104 µM)
- MIC ([13]; ATCC25922, read-out: MIC Escherichia coli ATCC 25922 LptA Q62L (7x)): 64 µg/mL (≈ 104 µM)
- MIC [14]: > 64 µg/mL
- MIC ([15]; NCTC13443, read-out: MIC Klebsiella pneumoniae NCTC 13443 WT): > 64 µg/mL
- MIC ([16]; ATCC43816, read-out: MIC Klebsiella pneumoniae ATCC 43816 WT): > 64 µg/mL

SMILES: CC[C@H](C)[C@H](NC(=O)[C@@H](NC(=O)[C@@H]1CCCN1C(=O)[C@@H](NC(=O)[C@@H]1CCCN1C(=O)[C@H](CCCCN)NC(=O)[C@@H](N)CCCCN)C(C)C)[C@@H](C)CC)C(=O)N[C@@H](Cc1ccc(O)cc1)C(=O)N[C@@H]1C(=O)N[C@@H](CC(N)=O)C(=O)N[C@@H](CCCNC(=N)N)C(=O)N[C@@H](CCN)C(=O)N[C@@H]([C@@H](C)O)C(=O)N[C@H](CCN)C(=O)N[C@@H](CCCCN)C(=O)N[C@H](C(=O)N[C@@H](CCN)C(=O)N[C@@H](CCCNC(=N)N)C(=O)N[C@@H](Cc2ccc(O)cc2)C(=O)O)CSSC1(C)C [Compound 2] (H-KKPVPIIY[Pen]NR[Dab]T[dDab]KC[Dab]RY-OH; disulfide 9-16)
- MIC E. coli ATCC 25922 Parent ([6]; CLSI method, parent strain): 0.031 micrograms per milliliter
- MIC K. pneumoniae NCTC 13443 (NDM-1) Q62L mutant [10, 18]: >8 micrograms per milliliter
- MIC E. coli ATCC 25922 Q62L mutant [13, 18]: 2 micrograms per milliliter
- MIC K. pneumoniae NCTC 13443 (NDM-1) Parent ([15]; CLSI method, parent strain): 0.5 micrograms per milliliter
- MIC K. pneumoniae ATCC 43816 Parent ([16]; CLSI method, parent strain): 0.125 micrograms per milliliter
- Haemolysis % at 0.2 g/L (human red blood cells): 0%
- IC50 at 48 h (in vitro): 60000 nM
- IC50 (LptAm): 12.6 ± 0.7 nM
- Ki (LptAm): 2.1 ± 0.1 nM
- IC50 (LptAmQ62L): 19.3 ± 6.3 nM
- Ki (LptAmQ62L): 13.1 ± 4.2 nM

SMILES: CNC(C)C1CCC(N)C(OC2C(N)CC(N)C(OC3OCC(C)(O)C(NC)C3O)C2O)O1 (stereo not shown) [Gentamicin, reference compound]
- MIC [17]: 0.5 µg/mL (≈ 1.05 µM)
- MIC ([4]; ATCC43816, read-out: MIC K. pneumoniae ATCC 43816 Q62L mutant): 0.5 µg/mL (≈ 1.05 µM)
- MIC ([6]; ATCC25922, read-out: MIC E. coli ATCC 25922 Parent): 0.5 µg/mL (≈ 1.05 µM)
- MIC ([10]; NCTC13443, read-out: MIC K. pneumoniae NCTC 13443 (NDM-1) Q62L mutant): > 8 µg/mL
- MIC ([13]; ATCC25922, read-out: MIC E. coli ATCC 25922 Q62L mutant): 1 µg/mL (≈ 2.09 µM)
- MIC ([15]; NCTC13443, read-out: MIC K. pneumoniae NCTC 13443 (NDM-1) Parent): > 8 µg/mL
- MIC ([16]; ATCC43816, read-out: MIC K. pneumoniae ATCC 43816 Parent): 0.5 µg/mL (≈ 1.05 µM)
